Assay results published in PubChem BioAssay AID2740 (NMMLSC, 2010).
Active and inactive are the calls of the source.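 Rule for the calls: active = compounds whose fitted half-maximal concentration for changing the GFP signal is at or below a set limit; inactive = the rest.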

experiment: TOR pathway RPL19A-GFP modulators, concentration series – cell-based, S. cerevisiae, flow cytometry, MLPCN hits, dose response (AID 2740);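 note: background is signal of the same compound in parental non-GFP s288c yeast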; conditions: S. cerevisiae RPL19A-GFP strain, flow cytometry fluorescence, 3 h; at 33 µM (top of the series)

| Structure (SMILES) | GFP fluorescence, lower = active (kMESF (background-subtracted)) |
| --- | --- |
| Cc1cc(NC(c2ccc(Cl)cc2)c2ccc3cccnc3c2O)no1 (stereo unspecified) | 39.3 (inactive) |
| O=C(Nc1nc2ccc(F)cc2s1)c1ccccn1 | 48.2 (inactive) |
| Cc1nn(C)c(C)c1N1C(=O)c2cccc3c(Br)ccc(c23)C1=O | 40.3 (inactive) |
| N#C/C(=C\c1cc(Br)ccc1F)C(=O)NC1CC1 | 24.2 (inactive) |
| O=C(NC(=S)Nc1ccc2oc(=O)ccc2c1)c1cccc(Cl)c1 | 37.2 (inactive) |
| COc1ccccc1N=Cc1nc(-c2ccccc2)oc1OC(C)=O | 46.8 (inactive) |
| Nc1nc2ncc(CNc3ccc(C(=O)N[C@@H](CCC(=O)O)C(=O)O)cc3)nc2c(=O)[nH]1 | 37 (inactive) |
| O=C1c2cccc3c([N+](=O)[O-])ccc(c23)C(=O)N1c1ccccn1 | 55.8 (inactive) |
| O=C(c1ccc(Cl)cc1)N1CCN(c2cccc3[nH]ccc23)CC1 | 41.9 (inactive) |
| CC(Oc1cc2oc(=O)c3c(c2cc1Cl)CCC3)C(=O)NCCN1CCOCC1 (stereo unspecified) | 37.8 (inactive) |
| COC(=O)/C(=C/c1c[nH]c2ccccc12)[N+](=O)[O-] | 42.8 (inactive) |
| O=[N+]([O-])c1ccc(N=Nc2c(Cl)cc(O)cc2Cl)cc1 | 37.9 (inactive) |
| O=C(O)c1ccc(COc2ccccc2C=C2C(=O)c3ccccc3C2=O)cc1 | 38.9 (inactive) |
| Oc1cc(-c2ccc(N3CCCCC3)nc2)cc2cccnc12 | 46.1 (inactive) |
| Oc1ccc2ccccc2c1/C=N/Nc1nnc(-c2ncc[nH]2)c2ccccc12 | 4.23 (inactive) |
| CC(=O)CSc1ncnc2c1cnn2-c1ccccc1 | 37.7 (inactive) |

| Structure (SMILES) | GFP fluorescence, lower = active (kMESF (background-subtracted)) |
| --- | --- |
| O=S(=O)(CCN(CCS(=O)(=O)C(F)(F)F)CC1CCCO1)C(F)(F)F (stereo unspecified) | 27.1 (inactive) |
| CC(=O)OC[C@]12CC[C@H]3[C@@](C)(CC[C@H]4C(C)(C)CCC[C@]34C)[C@@H]1C[C@H](C1=CC(=O)O[C@@H]1OC(C)=O)O2 | 18.7 (inactive) |
| CC(=O)[C@]1(O)Cc2c(O)c3c(c(O)c2[C@@H](O[C@H]2C[C@H](N)[C@H](O)[C@H](C)O2)C1)C(=O)c1ccccc1C3=O | 42 (inactive) |
| COC(=O)CCS(=O)(=O)c1nc(-c2ccccc2)cc(C(F)(F)F)n1 | 37.3 (inactive) |
| CC(c1ccccc1)N1C(=O)/C(=C/c2ccncc2)SC1=S (stereo unspecified) | 20.6 (inactive) |
| O=c1c(-c2ccc(Cl)cc2)[n+]([O-])c2ccccc2n1O | 30.9 (inactive) |
| O=C(Oc1cccc2cccnc12)c1ccc(Br)o1 | 44.1 (inactive) |
| O=C1C(Cl)=C(Nc2ccccc2O)C(=O)N1CCc1ccccc1 | 42.1 (inactive) |
| CC(OC(=O)c1ccco1)C(=O)Nc1nc(-c2ccccc2)cs1 (stereo unspecified) | 37.1 (inactive) |
| O=C1C2C3C=CC(CO)(O3)C2C(=O)N1c1ccccc1-c1ccccc1 (stereo unspecified) | 20.9 (inactive) |
| Cc1nn2c(NCc3ccccn3)c3c(nc2c1-c1ccccc1)CCC3 | 44.3 (inactive) |
| CC(C)[C@@]1(c2ccc(Cl)cc2)ON(c2ccccc2C(F)(F)F)C1=O | 39.1 (inactive) |
| COC(=O)CCC(=O)OC1(C)C(=O)C2=COC(c3ccc(OC)cc3)=CC2=C(Br)C1=O (stereo unspecified) | 32.8 (inactive) |
| Cc1cc(/C=C2/SC(=S)N(c3cccc(Cl)c3)C2=O)c(C)n1-c1cccnc1 | 42.7 (inactive) |
| Cc1ccc(S(=O)(=O)N2CC(C(=O)O)=CC[C@H]2c2ccc(Cl)cc2)cc1 | 37.3 (inactive) |
